Key:
[1] = tested on: windgrass; experiment: Test Example 4: herbicidal effect by soil treatment (Table 19, symbol L); type: in vivo, windgrass (Apera spica-venti); conditions: amount of applied herbicide 320 g/ha
Procedure, shortened: (§1)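 In this soil treatment, the formulated compound reached the seeds only through the soil: seeds were buried about 1.5 cm deep in sterilized diluvial soil, then the diluted emulsion was sprayed over the surface. After three weeks at 25° C. to 30° C. in a greenhouse, effects were graded on criteria from an earlier test.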

[2] = tested on: velvetleaf; experiment: Test Example 5: herbicidal effect by foliage application, plastic box (Table 20, symbol M); type: in vivo, velvetleaf (Abutilon theophrasti); conditions: 320 g/ha, foliage application after 14-day growth, evaluated three weeks after application
Procedure, shortened: (§2)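 Plants were sown into sterilized diluvial soil under about 1.5 cm cover and kept in a greenhouse at 25° C. to 30° C. Fourteen days on, foliage received an even spray of the diluted emulsion. Herbicidal or crop effect was judged three weeks afterwards.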

[3] = tested on: late watergrass; experiment: Test Example 1: herbicidal activity, application before weed generation under submerged conditions (Table 16, symbol A); type: in vivo, late watergrass (Echinochloa oryzicola); conditions: amount of applied herbicide 320 g/ha
Procedure, shortened: (§3)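 Alluvial soil was flooded to 4 cm depth, weed seeds were sown mixed and 2.5-leaf rice seedlings were transplanted. On sowing day, the compound's emulsion, diluted in water to a set dose, was applied to the water surface. Plants grew at 25–30 °C and were scored 0–5 after three weeks.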

[4] = tested on: windgrass; experiment: Test Example 5: herbicidal effect by foliage application, plastic box (Table 20, symbol L); type: in vivo, windgrass (Apera spica-venti); conditions: 320 g/ha, foliage application after 14-day growth, evaluated three weeks after application
Procedure, shortened: as §2

[5] = tested on: persian speedwell; experiment: Test Example 5: herbicidal effect by foliage application, plastic box (Table 20, symbol R); type: in vivo, Persian speedwell (Veronica persica); conditions: 320 g/ha, foliage application after 14-day growth, evaluated three weeks after application
Procedure, shortened: as §2

[6] = tested on: lambsquarters; experiment: Test Example 5: herbicidal effect by foliage application, plastic box (Table 20, symbol O); type: in vivo, lambsquarters (Chenopodium album); conditions: 320 g/ha, foliage application after 14-day growth, evaluated three weeks after application
Procedure, shortened: as §2

[7] = tested on: barnyard grass; experiment: Test Example 4: herbicidal effect by soil treatment (Table 19, symbol H); type: in vivo, barnyard grass (Echinochloa crus-galli); conditions: amount of applied herbicide 320 g/ha
Procedure, shortened: as §1

[8] = tested on: southern crabgrass; experiment: Test Example 5: herbicidal effect by foliage application, plastic box (Table 20, symbol F); type: in vivo, southern crabgrass (Digitaria ciliaris); conditions: 320 g/ha, foliage application after 14-day growth, evaluated three weeks after application
Procedure, shortened: as §2

[9] = tested on: barnyard grass; experiment: Test Example 3: herbicidal effect by foliage application, Wagner pot (Table 18, symbol H); type: in vivo, barnyard grass (Echinochloa crus-galli); conditions: 320 g/ha
Procedure, shortened: (§4)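 Plants were sown in alluvial soil held under 0.1–0.5 cm standing water and grown 14 days in a greenhouse at 25–30 °C. An emulsifiable formulation, water-diluted to the set dose, was then sprayed onto the foliage, and effects were scored three weeks later using previously defined criteria.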

[10] = tested on: green foxtail; experiment: Test Example 5: herbicidal effect by foliage application, plastic box (Table 20, symbol G); type: in vivo, green foxtail (Setaria viridis); conditions: 320 g/ha, foliage application after 14-day growth, evaluated three weeks after application
Procedure, shortened: as §2

[11] = tested on: Chinese sprangletop; experiment: Test Example 3: herbicidal effect by foliage application, Wagner pot (Table 18, symbol D); type: in vivo, chinese sprangletop (Leptochloa chinensis); conditions: 320 g/ha
Procedure, shortened: as §4

[12] = tested on: persian speedwell; experiment: Test Example 4: herbicidal effect by soil treatment (Table 19, symbol R); type: in vivo, Persian speedwell (Veronica persica); conditions: amount of applied herbicide 320 g/ha
Procedure, shortened: as §1

[13] = tested on: lambsquarters; experiment: Test Example 4: herbicidal effect by soil treatment (Table 19, symbol O); type: in vivo, lambsquarters (Chenopodium album); conditions: amount of applied herbicide 320 g/ha
Procedure, shortened: as §1

[14] = tested on: Italian ryegrass; experiment: Test Example 4: herbicidal effect by soil treatment (Table 19, symbol K); type: in vivo, Italian ryegrass (Lolium multiflorum); conditions: amount of applied herbicide 320 g/ha
Procedure, shortened: as §1

[15] = tested on: oval-leafed pondweed; experiment: Test Example 1: herbicidal activity, application before weed generation under submerged conditions (Table 16, symbol C); type: in vivo, oval-leafed pondweed (Monochoria vaginalis); conditions: amount of applied herbicide 320 g/ha
Procedure, shortened: as §3

[16] = tested on: Italian ryegrass; experiment: Test Example 5: herbicidal effect by foliage application, plastic box (Table 20, symbol K); type: in vivo, Italian ryegrass (Lolium multiflorum); conditions: 320 g/ha, foliage application after 14-day growth, evaluated three weeks after application
Procedure, shortened: as §2

Compound | Herbicidal effect by soil treatment, L: windgrass [1] | herbicidal effect on M: velvetleaf (evaluation grade 0-5) [2] | Herbicidal effect, A: late watergrass [3] | herbicidal effect on L: windgrass (evaluation grade 0-5) [4] | herbicidal effect on R: persian speedwell (evaluation grade 0-5) [5] | herbicidal effect on O: lambsquarters (evaluation grade 0-5) [6] | Herbicidal effect by soil treatment, H: barnyard grass [7] | herbicidal effect on F: southern crabgrass (evaluation grade 0-5) [8] | herbicidal effect on barnyard grass (H) [9] | herbicidal effect on G: green foxtail (evaluation grade 0-5) [10] | herbicidal effect on Chinese sprangletop (D) [11] | Herbicidal effect by soil treatment, R: persian speedwell [12] | Herbicidal effect by soil treatment, O: lambsquarters [13] | Herbicidal effect by soil treatment, K: Italian ryegrass [14] | Herbicidal effect, C: oval-leafed pondweed [15] | herbicidal effect on K: Italian ryegrass (evaluation grade 0-5) [16]
COc1ccc2c(-c3c(OC(=O)c4ccccc4OC)c(C)nn(C)c3=O)c(-c3ccccc3OC)sc2c1 [3-158] | 0 (Herbicidal rate of 5% or less (almost no effect)) | 5 (Herbicidal rate of 90% or more (almost completely withered)) | 5 (Herbicidal rate of 90% or more (almost completely withered)) | 5 (Herbicidal rate of 90% or more (almost completely withered)) | 5 (Herbicidal rate of 90% or more (almost completely withered)) | 5 (Herbicidal rate of 90% or more (almost completely withered)) | 0 (Herbicidal rate of 5% or less (almost no effect)) | 5 (Herbicidal rate of 90% or more (almost completely withered)) | 5 (Herbicidal rate of 90% or more (almost completely withered)) | 5 (Herbicidal rate of 90% or more (almost completely withered)) | 3 (Herbicidal rate of 40% or more and less than 70%) | 0 (Herbicidal rate of 5% or less (almost no effect)) | 0 (Herbicidal rate of 5% or less (almost no effect)) | 0 (Herbicidal rate of 5% or less (almost no effect)) | 5 (Herbicidal rate of 90% or more (almost completely withered)) | 4 (Herbicidal rate of 70% or more and less than 90%)
CCCOc1ccc(-c2sc3c(Cl)cccc3c2-c2c(OC(=O)CCC)c(C)nn(C)c2=O)cc1 [4-028] | 0 (Herbicidal rate of 5% or less (almost no effect)) | 5 (Herbicidal rate of 90% or more (almost completely withered)) | 3 (Herbicidal rate of 40% or more and less than 70%) | 0 (Herbicidal rate of 5% or less (almost no effect)) | 5 (Herbicidal rate of 90% or more (almost completely withered)) | 5 (Herbicidal rate of 90% or more (almost completely withered)) | 0 (Herbicidal rate of 5% or less (almost no effect)) | 0 (Herbicidal rate of 5% or less (almost no effect)) | 5 (Herbicidal rate of 90% or more (almost completely withered)) | 3 (Herbicidal rate of 40% or more and less than 70%) | 3 (Herbicidal rate of 40% or more and less than 70%) | 1 (Herbicidal rate of 5% or more and less than 20%) | 4 (Herbicidal rate of 70% or more and less than 90%) | 0 (Herbicidal rate of 5% or less (almost no effect)) | 0 (Herbicidal rate of 5% or less (almost no effect)) | 2 (Herbicidal rate of 20% or more and less than 40%)

Source: patent publication US20230085307A1, “PYRIDAZINONE COMPOUND AND HERBICIDE” (NISSAN CHEMICAL CORPORATION, priority 2019, published 2023)
